Consider four compounds from ChEMBL document CHEMBL1150754, “Chemical and pharmaceutical studies on medicinal plants in Paraguay. Geraniin, an angiotensin-converting enzyme inhibitor from "paraparai mi," Phyllanthus niruri” (J Nat Prod, 1988).

The target of this assay is Angiotensin-converting enzyme (Homo sapiens, UniProt P12821). The assay can be described thus: Inhibition of ACE by fluorometric assay.

The structures appear in SMILES notation.

Angiotensin-converting enzyme, sequence (P12821 whole entry): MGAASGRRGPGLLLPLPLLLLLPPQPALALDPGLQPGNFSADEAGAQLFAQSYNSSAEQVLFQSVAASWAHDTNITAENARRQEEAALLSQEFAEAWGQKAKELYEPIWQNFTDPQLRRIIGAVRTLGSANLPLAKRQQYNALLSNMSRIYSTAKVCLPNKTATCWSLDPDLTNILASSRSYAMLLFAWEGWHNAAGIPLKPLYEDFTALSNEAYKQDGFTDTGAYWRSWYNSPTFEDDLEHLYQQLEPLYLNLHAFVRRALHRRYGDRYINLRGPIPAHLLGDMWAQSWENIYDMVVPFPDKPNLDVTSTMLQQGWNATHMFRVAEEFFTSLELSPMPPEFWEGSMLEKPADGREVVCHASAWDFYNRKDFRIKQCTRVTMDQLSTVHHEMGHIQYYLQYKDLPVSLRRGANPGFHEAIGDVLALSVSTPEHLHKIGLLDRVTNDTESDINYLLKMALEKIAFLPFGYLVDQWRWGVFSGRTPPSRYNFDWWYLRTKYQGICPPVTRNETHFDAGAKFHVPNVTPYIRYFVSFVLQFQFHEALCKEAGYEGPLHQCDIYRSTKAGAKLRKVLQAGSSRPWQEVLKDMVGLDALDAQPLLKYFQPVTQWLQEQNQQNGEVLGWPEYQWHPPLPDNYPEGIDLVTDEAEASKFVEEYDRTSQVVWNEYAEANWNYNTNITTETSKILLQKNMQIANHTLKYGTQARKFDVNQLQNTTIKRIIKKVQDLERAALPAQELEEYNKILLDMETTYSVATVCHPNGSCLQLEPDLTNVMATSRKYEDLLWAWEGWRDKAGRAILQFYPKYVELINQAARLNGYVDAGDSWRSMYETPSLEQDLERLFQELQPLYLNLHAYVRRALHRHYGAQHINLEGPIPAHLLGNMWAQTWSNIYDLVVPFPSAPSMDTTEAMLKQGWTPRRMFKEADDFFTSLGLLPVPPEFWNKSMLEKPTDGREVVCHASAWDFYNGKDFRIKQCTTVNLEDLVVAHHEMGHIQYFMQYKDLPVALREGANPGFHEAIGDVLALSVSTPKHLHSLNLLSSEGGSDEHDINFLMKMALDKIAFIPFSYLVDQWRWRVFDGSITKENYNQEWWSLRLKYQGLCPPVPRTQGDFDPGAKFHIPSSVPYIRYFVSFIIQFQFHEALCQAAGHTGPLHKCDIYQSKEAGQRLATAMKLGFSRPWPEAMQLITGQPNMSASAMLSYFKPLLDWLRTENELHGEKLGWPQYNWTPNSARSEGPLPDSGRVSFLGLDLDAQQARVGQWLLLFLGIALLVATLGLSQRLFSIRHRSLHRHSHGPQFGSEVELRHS

The IC50 is the concentration at which inhibition is half-maximal. Low values mean higher potency, high ones lower potency. Compound `O=C(O[C@@H]1O[C@@H]2COC(=O)c3cc(O)c(O)c(O)c3-c3c(cc(O)c(O)c3O)C(=O)O[C@H]([C@H]1O)[C@@H]2O)c1cc(O)c(O)c(O)c1` [CORILAGIN] showed a half-maximal inhibitory concentration (IC50) of 3.7 mM. In the case of `O=c1oc2c(O)c(O)cc3c(=O)oc4c(O)c(O)cc1c4c23` [ELLAGIC ACID], 5 mM corresponded to half-maximal inhibition (IC50). Take `O=C(O)c1cc(O)c(O)c(O)c1` [GALLIC ACID]: the IC50 stood at 7.7 mM. For `O=C1O[C@H]2[C@@H]3OC(=O)c4cc(O)c(O)c(O)c4-c4c(cc(O)c(O)c4O)C(=O)OC[C@H]2O[C@@H](OC(=O)c2cc(O)c(O)c(O)c2)[C@@H]3OC(=O)c2cc(O)c(O)c3c2[C@@H]2C1=CC(=O)[C@](O)(O3)C2(O)O` [GERANIIN] the value was 0.4 mM.
